Where a name gives a salt, the structure may show the parent alone. Read-outs that look alike come from different tables or passages of the source. One block for each compound: values may come before it.
Tests used:
[1] = biological target: T1, Thromboxane A2/Prostaglandin H2 (TP) receptor (Homo sapiens, UniProt P21731); experiment: Radioligand competition binding, TP receptor sites in human platelets ([3H]SQ 29,548); conditions: for pKi ± SEM, Human TP receptors: [3H]SQ 29,548 as radioligand, platelets, N = 4-9; for P.R. (potency ratio), Human TP receptors: relative to cmpd. 1 (TMQ), PR = antilog [pKi(drug) − pKi(TMQ)]
T1 construct: endogenous in cells; host or cells: human platelets (from platelet rich plasma)
T1 sequence (P21731 1-343): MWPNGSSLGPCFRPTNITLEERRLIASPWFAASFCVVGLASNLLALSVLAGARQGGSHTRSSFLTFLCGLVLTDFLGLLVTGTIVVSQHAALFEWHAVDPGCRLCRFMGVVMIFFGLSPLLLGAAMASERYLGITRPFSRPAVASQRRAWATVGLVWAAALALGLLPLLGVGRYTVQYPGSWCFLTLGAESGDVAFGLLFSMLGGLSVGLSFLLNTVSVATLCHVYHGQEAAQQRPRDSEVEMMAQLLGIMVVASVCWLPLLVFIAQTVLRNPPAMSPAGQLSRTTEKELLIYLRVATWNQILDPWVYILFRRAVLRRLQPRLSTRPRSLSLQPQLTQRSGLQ
Experimental: For binding experiments, human platelet rich plasma (PRP) was centrifuged and re-suspended in 50 mM Tris-saline buffer, pH 7.4. […] Filters were placed in plastic scintillation vials containing 10 mL of an emulsion-type scintillation mixture and radioactivity measured by liquid scintillation spectrometry.

human β2 Adrenoreceptor = biological target: T2, human β2 Adrenoreceptor (Homo sapiens, UniProt P07550); experiment: Radioligand competition binding, human β2 adrenoreceptor expressed in CHO cells ([125I]ICYP); conditions: for pKi ± SEM, Human β2 Adrenoreceptor CHO: [125I]ICYP as radioligand, N = 4-9; for P.R. (potency ratio), Human β2 Adrenoreceptor CHO: relative to cmpd. 1 (TMQ), PR = antilog [pKi(drug) − pKi(TMQ)]
T2 construct: expressed in transfected cells
T2 sequence (P07550 whole entry): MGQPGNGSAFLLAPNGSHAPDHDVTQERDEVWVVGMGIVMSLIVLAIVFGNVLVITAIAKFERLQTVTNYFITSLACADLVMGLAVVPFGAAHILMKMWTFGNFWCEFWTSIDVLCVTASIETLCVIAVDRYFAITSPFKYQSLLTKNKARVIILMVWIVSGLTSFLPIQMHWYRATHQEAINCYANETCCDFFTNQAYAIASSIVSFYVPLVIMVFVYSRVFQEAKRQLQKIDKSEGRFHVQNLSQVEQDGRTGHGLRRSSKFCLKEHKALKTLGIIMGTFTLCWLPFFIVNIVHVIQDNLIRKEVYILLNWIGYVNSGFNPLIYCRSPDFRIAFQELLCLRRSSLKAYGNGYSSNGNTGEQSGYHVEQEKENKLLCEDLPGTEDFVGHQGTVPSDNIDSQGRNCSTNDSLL

human β3-Adrenoreceptor = biological target: T3, human β3-Adrenoreceptor (Homo sapiens, UniProt P13945); experiment: Radioligand competition binding, human β3 adrenoreceptor expressed in CHO cells ([125I]ICYP); conditions: N = 3-9 (Table 5)
T3 construct: expressed in transfected cells
T3 sequence (P13945 whole entry): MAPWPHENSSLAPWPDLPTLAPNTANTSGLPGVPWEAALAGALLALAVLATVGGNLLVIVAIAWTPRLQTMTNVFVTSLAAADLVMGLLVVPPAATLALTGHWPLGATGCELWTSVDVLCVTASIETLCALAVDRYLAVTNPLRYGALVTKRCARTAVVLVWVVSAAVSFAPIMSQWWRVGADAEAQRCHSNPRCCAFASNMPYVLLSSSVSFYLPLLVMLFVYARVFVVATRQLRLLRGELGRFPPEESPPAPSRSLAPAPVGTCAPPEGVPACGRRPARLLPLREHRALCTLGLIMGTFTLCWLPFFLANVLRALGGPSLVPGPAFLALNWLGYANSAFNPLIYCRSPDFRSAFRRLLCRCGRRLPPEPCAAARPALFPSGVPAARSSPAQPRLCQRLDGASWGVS

Human β3-AR [2] = biological target: T4, Human β3-AR (Homo sapiens, UniProt P13945); experiment: CRE-luciferase reporter gene (CRE-LUC) assay, CHO cells expressing human β3-AR
T4 sequence (P13945 whole entry): as above
Experimental: (§2) cAMP response element (CRE)-luciferase(LUC) reporter gene (CRE-LUC) assay. […] The transfected CHO cells were seeded at a density of 40,000/well in 96 well microtiter plates (Culturplate, Packard) and allowed to grow for 20 hours. After 20 hours, the cells were treated with varying drug concentrations (10^−11 to 10^−4 M) for 4 hours. Following drug exposures, the cells were lysed and luciferase activity measured using the LucLite® assay kit (Packard). Changes in light production were measured by a Topcount® luminometer (Packard).

Human β2-AR = Human β2-AR (Homo sapiens, UniProt P07550); experiment: CRE-luciferase reporter gene (CRE-LUC) assay, CHO cells expressing human β2-AR; conditions: percentage of maximal response of R-(−)-isoproterenol (Table 6 B)
Human β2-AR, sequence (P07550 whole entry): as the sequence (P07550 whole entry) above
Experimental: as §2

Human β3-AR [3] = biological target: T4, Human β3-AR; experiment: cAMP radioimmunoassay (cAMP-RIA), CHO cells expressing human β3-AR; type: cell-based; set-up: expressed in transfected cells
Experimental: (§1) cAMP Radioimmunoassay (CAMP-RIA Assay). […] The precipitated protein was dissolved in 0.1N NaOH.

rat-β3-AR [4] = biological target: T5, rat-β3-AR (Rattus norvegicus, UniProt P26255); experiment: cAMP accumulation in CHO cells expressing rat β3-AR; type: cell-based; conditions: for EC50: CHO cells, mean ± SEM (n in parentheses), read-out: pKact (−log EC50) for cAMP accumulation, rat-β3-AR (converted); for Emax: relative to that of (−)-isoproterenol, CHO cells expressing rat-β3-AR, read-out: Emax, maximal cAMP accumulation
T5 construct: expressed in transfected cells; host or cells: CHO cells
T5 sequence (P26255 whole entry): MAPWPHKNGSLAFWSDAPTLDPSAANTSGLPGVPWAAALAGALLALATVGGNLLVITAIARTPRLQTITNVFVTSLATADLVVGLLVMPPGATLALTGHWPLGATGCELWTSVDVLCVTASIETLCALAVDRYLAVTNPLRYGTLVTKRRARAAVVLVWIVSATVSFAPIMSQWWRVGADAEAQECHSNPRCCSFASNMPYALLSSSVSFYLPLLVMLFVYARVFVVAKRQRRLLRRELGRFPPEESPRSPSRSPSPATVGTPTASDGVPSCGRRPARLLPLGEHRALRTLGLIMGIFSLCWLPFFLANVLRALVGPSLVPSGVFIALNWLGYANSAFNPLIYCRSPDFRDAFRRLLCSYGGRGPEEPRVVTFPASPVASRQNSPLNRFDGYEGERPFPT
Experimental: as §1

rat-β3-AR [5] = biological target: T5, rat-β3-AR; experiment: Binding in CHO cells expressing rat β3-AR; conditions: mean ± SEM (n in parentheses), read-out: pKi (−log Ki) for binding, rat-β3-AR (converted)
Human β3 Adrenoreceptors = biological target: T6, Human β3 Adrenoreceptors (Homo sapiens, UniProt P13945); experiment: hβ3 cAMP functional activity in CHO cells expressing human β3 adrenoreceptors (Table 8); type: cell-based; conditions: for EC50: read-out: hβ3 cAMP EC50(nM) +/−SEM
T6 construct: expressed in transfected cells
T6 sequence (P13945 whole entry): as the sequence (P13945 whole entry) above

human β1 Adrenoreceptor = human β1 Adrenoreceptor (Homo sapiens, UniProt P08588); experiment: Radioligand competition binding, human β1 adrenoreceptor expressed in CHO cells ([125I]ICYP)
human β1 Adrenoreceptor, sequence (P08588 whole entry): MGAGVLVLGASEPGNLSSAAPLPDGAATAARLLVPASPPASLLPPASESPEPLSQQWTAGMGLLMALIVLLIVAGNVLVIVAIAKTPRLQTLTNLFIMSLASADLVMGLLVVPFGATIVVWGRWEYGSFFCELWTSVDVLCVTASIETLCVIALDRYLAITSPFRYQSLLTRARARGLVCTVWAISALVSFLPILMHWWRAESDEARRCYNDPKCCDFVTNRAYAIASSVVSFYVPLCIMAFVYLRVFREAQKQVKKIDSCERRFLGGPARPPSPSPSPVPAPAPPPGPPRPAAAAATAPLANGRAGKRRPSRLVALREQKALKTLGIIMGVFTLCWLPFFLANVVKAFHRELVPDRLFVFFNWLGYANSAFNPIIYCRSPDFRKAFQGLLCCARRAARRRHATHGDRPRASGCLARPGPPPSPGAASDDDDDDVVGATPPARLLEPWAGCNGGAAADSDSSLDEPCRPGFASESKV
Experimental: Competitive and comparative binding experiments on β1 Adrenoreceptors, β2 Adrenoreceptors and β3-Adrenoreceptors expressed in CHO cells were performed as described previously. […] CHO cells grown to a confluence in 150-mL flasks were detached into Ham's F-12 medium after treatment with 0.05% trypsin-0.53 mM EDTA solution. The cells were then pelleted and washed three times with Tris-EDTA buffer (50 mM Tris-HCl, 150 mM NaCl, 20 mM EDTA, pH 7.4) and resuspended in the same buffer.
Competition binding experiments were performed in duplicates using these whole cells. […] The final volume in each tube was 0.25 mL. Nonspecific binding (5-30%) was determined in the presence of 1 μM (±)-propranolol. Incubations were carried out for 60 min at 37° C. Binding reactions were terminated by rapid filtration through Whatman GF/B glass fiber filters on a Brandel model 12-R tissue harvester. Filters were washed twice with ice cold Tris-EDTA buffer to remove free ICYP. The filters were dried under tissue harvester vacuum and radioactivity was measured by gamma scintillation spectrometry (Beckman model 8000 gamma counter, Palo Alto, Calif.). Specific binding to β Adrenoreceptor sites in these cells varied from 94 to 100%
Inhibitory concentration-50 (IC50) value of each competing drug was determined graphically from individual plots of percent radioligand bound versus log drug concentration on O-adrenoceptors and human platelets. […] Dissociation constants (Ki) for each competing drug were calculated using the equation: [formula] and the data expressed as pKi (i.e., −log Ki) values.

Human β1-AR = Human β1-AR (Homo sapiens, UniProt P08588); experiment: cAMP radioimmunoassay (cAMP-RIA), CHO cells expressing human β1-AR; type: cell-based; set-up: expressed in transfected cells; conditions: percentage of maximal response of R-(−)-isoproterenol (100%)
Human β1-AR, sequence (P08588 whole entry): as above
Experimental: as §1

[6] = CHO cells (Table 8), read-out: hβ2 Binding ki

SMILES: I.O=C(Nc1ccc(CC2NCCc3cc(O)c(O)cc32)cc1I)c1ccccc1 (centres unmarked) [Compound 26b, 1-(4-Benzoylamino-3-iodobenzyl)-6,7-dihydroxy-1,2,3,4-tetrahydroisoquinoline Hydroiodide]
- pKi ± SEM, Human TP receptors [1]: 5.27 ± 0.13
- P.R. (potency ratio), Human TP receptors [1]: 0.03
- pKi ± SEM, Human β2 Adrenoreceptor CHO (human β2 Adrenoreceptor): 8.70
- P.R. (potency ratio), Human β2 Adrenoreceptor CHO (human β2 Adrenoreceptor): 22

SMILES: COc1cc(CC2NCCc3nc(N)sc32)cc(OC)c1OC (centres unmarked)
- Ki (human β2 Adrenoreceptor; [6]): > 3000 nM
- EC50 (Human β3 Adrenoreceptors): > 3160 nM
- Ki (human β1 Adrenoreceptor): > 3000 nM

SMILES: Nc1c(I)cc(CC2NCCc3cc(O)c(O)cc32)cc1I (centres unmarked)
- hβ3 cAMP % Iso +/−SEM (Human β3 Adrenoreceptors): 108 +/− 2 % Iso
- EC50 (Human β3 Adrenoreceptors): < 4 nM
- Ki (human β1 Adrenoreceptor): 63.4 nM

SMILES: COc1c(I)cc(CC2NCCc3nc(N)sc32)cc1I (centres unmarked)
- Ki (human β2 Adrenoreceptor): 534 nM
- EC50 (Human β3 Adrenoreceptors): 506 nM

SMILES: Br.Oc1cc2c(cc1O)C(Cc1cc(I)c(O)c(I)c1)NCC2 (centres unmarked) [Compound 18, 6,7-Dihydroxy-1-(4-hydroxy-3,5-diiodobenzyl)-1,2,3,4-tetrahydroisoquinoline Hydrobromide]
- pKi ± SEM, Human TP receptors [1]: 4.72
- pKi ± SEM, Human β2 Adrenoreceptor CHO (human β2 Adrenoreceptor): 7.93

The next lines start with the values.

- pKi ± SEM, Human β3-AR (human β3-Adrenoreceptor): 5.83 ± 0.15
- EC50 (Human β3-AR [2]): 195 nM
- I.A., Human β3-AR, CRE-LUC assay (Human β3-AR [2]; percentage of maximal response of R-(−)-isoproterenol (Table 6 B)): 62 ± 3%
- pKi ± SEM, Human β2-AR (human β2 Adrenoreceptor; CHO cells, [125I]ICYP, N = 3-9 (Table 5)): 6.37 ± 0.08
- I.A. ± SEM, Human β2-AR, CRE-LUC assay (Human β2-AR): <15%
- EC50 (Human β3-AR [3]; CHO cells, N.A. = Not active at 100 μM, N = 4-12, read-out: pKact ± SEM, Human β3-AR, cAMP-RIA assay (converted)): 112 nM
- I.A., Human β3-AR, cAMP-RIA assay (Human β3-AR [3]; percentage of maximal response of R-(−)-isoproterenol (100%)): 67 ± 3%
SMILES: COc1c(I)cc(CC2NCCc3nc(N)sc32)cc1I.Cl.Cl (centres unmarked) [9 (B-28), 2-Amino-4-(3′,5′-diiodo-4′-methoxyphenylmethyl)-4,5,6,7-tetrahydrothiazolo[5,4-c]pyridine Dihydrochloride]

- EC50 (rat-β3-AR [4]): 1200 nM
- Emax (rat-β3-AR [4]): 70.9 ± 4.41%
- Ki (rat-β3-AR [5]): 51300 nM
SMILES: COc1cc(CC2NCCc3cc4c(cc32)OCO4)cc(OC)c1OC (centres unmarked) [6,7-Methylenedioxy TMQ]

- I.A. ± SEM, Human β1-AR, cAMP-RIA assay (Human β1-AR): 109 ± 10%
- EC50 (Human β3-AR [3]): 2.51 nM
SMILES: COc1cc(CC2NCCc3cc(O)c(O)cc32)cc(OC)c1OC (racemic) [Compound 1, trimetoquinol, reference compound]

- pKi ± SEM, Human TP receptors [1]: 4.08 ± 0.02
- P.R. (potency ratio), Human TP receptors [1]: 0.002
- pKi ± SEM, Human β2 Adrenoreceptor CHO (human β2 Adrenoreceptor): 5.36
- P.R. (potency ratio), Human β2 Adrenoreceptor CHO (human β2 Adrenoreceptor): 0.01
SMILES: Cl.Oc1cc2c(cc1O)C(Cc1cc(C(F)(F)F)cc(C(F)(F)F)c1)NCC2 (centres unmarked) [Compound 27, 1-(3,5-Bis-trifluoromethylbenzyl)-6,7-dihydroxy-1,2,3,4-tetrahydroisoquinoline Hydrochloride]

- Ki (human β2 Adrenoreceptor; [6]): 24 nM
- hβ3 cAMP % Iso +/−SEM (Human β3 Adrenoreceptors): 81 +/− 3 % Iso
- EC50 (Human β3 Adrenoreceptors): 46 nM
- Ki (human β1 Adrenoreceptor): 14.2 nM
SMILES: [N-]=[N+]=Nc1ccc(CC2NCCc3cc(O)c(O)cc32)cc1I (centres unmarked)

- EC50 (rat-β3-AR [4]): 1.82 nM
- Emax (rat-β3-AR [4]): 97.7 ± 5.85%
- Ki (rat-β3-AR [5]): 1580 nM
SMILES: Oc1cc2c(cc1O)C(Cc1cc(I)cc(I)c1)NCC2 (centres unmarked) [DemethoxyDITMQ]

- Ki (rat-β3-AR [5]): 14500 nM
SMILES: COc1cc2c(cc1OC)C(Cc1cc(I)c(NC(C)=O)c(I)c1)NCC2 (centres unmarked) [6,7-Dimethoxy-acetamidoDITMQ, 1-(4-Acetamido-3,5-diiodobenzyl)-6,7-dimethoxy-1,2,3,4-tetrahydroisoquinoline Hydrochloride]

From US20050096347A1, “Beta3-Adrenoreceptor agonists, agonist compositions and methods of using” (Molecular Design International, Inc., priority 1997, published 2005)
